From US7060671B1, “Peptides containing N-substituted D-amino acids for preventing β-strand association” (Senexis Limited, priority 1999, dated 2006)
Several values for one entry are separate records, joined by “and”; a condition that tells them apart may be missing. Equal entries are not always repeated. Entries after “also recorded” stand apart in the source; their conditions may differ. Square brackets hold non-standard residues; d marks the D form. Peptide text beside a SMILES is read from it. dNMeL = CN[C@H](CC(C)C)C(=O)O

How the values were obtained:
[1] = target: T1, synthetic peptide fragment corresponding to residues 11 to 25 of the Alzheimer's Aβ peptide (Homo sapiens, UniProt P05067); experiment: thioflavin T fluorescence assay of Aβ peptide fragment aggregation into amyloid fibrils; type: biochemical
T1 construct: residues 11 to 25 of the Alzheimer's Aβ peptide
Description: Peptide X (SEQ ID NO: 2) was dissolved in water to a concentration of 10 mM (about 10 mg/ml). […]

[2] = solubility in aqueous solutions; type: physicochemical; conditions: over a wide range of pH values
Source text: The two positively charged arginine side chains assist the peptide to penetrate cell membranes and the blood-brain barrier by making electrostatic interactions with the negatively charged phosphate head groups of their constituent phospholipid molecules, resulting in the formation of inverted micelles which carry the peptide molecules across these membranes.

[3] = target: T2, Alzheimer's Aβ peptide fragment (Homo sapiens, UniProt P05067); experiment: electron microscopy of Aβ peptide fragment aggregation; type: biochemical; conditions: 500 mM (so in the source) Peptide X, FIGS. 6 and 7
T2 construct: residues 11 to 25 of the Alzheimer's Aβ peptide
Description: Peptide X (SEQ ID NO: 2) was dissolved in water to a concentration of 10 mM (about 10 mg/ml). Alzheimer's Aβ peptide fragment, at a concentration of 50/M (about 0.1 mg/ml) in 50 mM sodium acetate buffer (pH 5.0), was incubated at 25° C. in the absence or presence of Peptide X (SEQ ID NO: 2) at concentrations ranging from 100 μM to 1 mM; the aggregation of the Aβ peptide fragment into insoluble β-fibres in the solutions was determined quantitatively after 20 minutes by measuring the fluorescence of 1%M added thioflavin T at 482 nm using an excitation wavelength of 440 nm. […] aliquots of these solutions were then analysed by electron microscopy to confirm that Peptide X (SEQ ID NO: 2) had inhibited and/or reversed the aggregation of the Alzheimer's Aβ peptide fragment into insoluble β-fibres.

With `CC(=O)N[C@H](CC(C)C)C(=O)N(C)[C@H](CC(C)C)C(=O)N[C@H](CC(C)C)C(=O)N(C)[C@H](CC(C)C)C(=O)N[C@H](CCCNC(=N)N)C(=O)N[C@H](CCCNC(=N)N)C(N)=O` [Peptide X, Nα-acetyl-(D-leucine)-(Nα-methyl-D-leucine)-(D-leucine)-(Nα-methyl-D-leucine)-(D-arginine)-(D-arginine)-NH2] (Ac-[dL][dNMeL][dL][dNMeL][dR][dR]-NH2) the inhibition at 200 µM ([1]; 200 μM Peptide X, Aβ fragment in 50 mM sodium acetate pH 5.0, 25° C., 20 minutes, FIG. 5) was greater than 60%, the “disaggregation of preformed amyloid fibrils” value ([1]; Peptide X added to the Aβ peptide fragment after incubation) was “able to disaggregate preformed amyloid fibrils” and the “reduction in Alzheimer's Aβ peptide aggregation” value ([1]; Peptide X concentration of 100 mM (so in the source), FIG. 5) was 50%. For the same compound, the solubility [2] was ≥ 10000 µM and ≥ 10000 µg/mL and the “inhibition of aggregation of Aβ peptide fragment into amyloid fibrils by electron microscopy” value [3] was “almost completely inhibited aggregation; also recorded: substantial elimination of aggregation”.
